Broadly, the IC50 is the concentration needed to halve the response being measured.

We go through 32 compounds from PubChem BioAssay AID1418 (Emory University Molecular Libraries Screening Center, 2008).

The source made the active and inactive calls. How the calls were made is not given here.

Sequence of Induced myeloid leukemia cell differentiation protein Mcl-1 (Homo sapiens) (Q07820 whole entry, looked up): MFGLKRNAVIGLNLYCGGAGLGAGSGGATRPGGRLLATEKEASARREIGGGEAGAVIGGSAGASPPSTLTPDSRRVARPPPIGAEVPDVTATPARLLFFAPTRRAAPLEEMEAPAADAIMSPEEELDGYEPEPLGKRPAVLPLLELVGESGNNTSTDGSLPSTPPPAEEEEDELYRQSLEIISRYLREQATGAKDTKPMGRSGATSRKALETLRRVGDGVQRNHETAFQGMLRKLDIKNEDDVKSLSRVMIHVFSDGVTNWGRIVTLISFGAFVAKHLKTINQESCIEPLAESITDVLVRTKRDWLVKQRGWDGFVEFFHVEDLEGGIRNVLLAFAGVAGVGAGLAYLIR

The assay addresses Induced myeloid leukemia cell differentiation protein Mcl-1 (Homo sapiens) (UniProt Q07820). The experiment in a line: blockers of Bid binding to Mcl-1 – biochemical, TR-FRET, dose response (AID 1418). The following applies: Mcl-1/Bid peptide binding, TR-FRET (europium/Dy647), 2 hr.
With `CN1C(=O)CN=C(c2ccc(Cl)cc2)c2cc(Cl)ccc21`, the IC50 was > 54 µM (inactive).

As for `C#CCOCCOCCOCCNc1nc(N2CCN(C(=O)[C@H](CCCCN)n3cc([C@@H](N)C(C)CC)nn3)CC2)nc(N2CCN(C(=O)[C@H](CCCCN)n3cc([C@@H](N)CO)nn3)CC2)n1` (some centres not stated), the IC50 was 0.63 µM.

With `O=[N+]([O-])c1cc(Br)c(O)c(/C=N/Nc2nnnn2-c2cccc3ccccc23)c1`, the IC50 was 13.9 µM.

Turning to `C/C(=N/NC(=O)c1cc(-c2cccc([N+](=O)[O-])c2)n[nH]1)c1ccc(Cl)cc1`, the IC50 was 2.27 µM.

`Cc1ccc(C)c(OCC(=O)Nc2ccc3c(c2)OCO3)c1C`: the IC50 is > 54 µM (inactive).

Turning to `O=C(CCS(=O)(=O)c1ccc(Br)s1)NC1CCCCCC1`, the IC50 was > 54 µM (inactive).

On to `COc1ccc(C(C)=O)cc1COc1ccc(Cl)cc1Cl`, for which the IC50 is > 54 µM (inactive).

For `Cc1ccc(-n2c(=O)c3cc4c(=O)n(-c5ccc(C)c(C)c5)c(=O)c4c(C(=O)c4ccc(C(=O)O)cc4)c3c2=O)cc1C`, the IC50 was 6.91 µM.

Take `Cc1ccc(-c2noc(-c3ccccc3C(=O)N3CCN(C)CC3)n2)cc1`: the IC50 was > 54 µM (inactive).

On to `O=C1Nc2ccc(Br)cc2/C1=C/C(=O)c1ccc2c(c1)OCO2`, for which the half-maximal inhibitory concentration (IC50) is 1.93 µM.

`COc1ccc(C)cc1S(=O)(=O)N(C)CC(=O)NCc1ccco1`: the IC50 is > 54 µM (inactive).

`Cc1nn(-c2ccccc2C(=O)O)c(=O)c2ccccc12`: the IC50 was > 54 µM (inactive).

With `N#Cc1cccc(NC(=O)CSc2ccc3c4c(cccc24)C(=O)c2ccccc2-3)c1`, the concentration for half-maximal inhibition (IC50) was 2.65 µM.

Turning to `CCC(CC)C(=O)Oc1c(Sc2ccccc2[N+](=O)[O-])c(C)nn1C(C)(C)C`, the IC50 was > 54 µM (inactive).

`COc1ccc2[nH]c(=O)c(CN(C(=O)C3CCCO3)c3ccc(C)c(C)c3)cc2c1` (configuration not stated): the IC50 was > 54 µM (inactive).

For `O=C(Nc1nnc(-c2ccco2)s1)C1CC1`, the IC50 is > 54 µM (inactive).

Take `O=[N+]([O-])c1cc(Cl)cc(/C=N/NC(=S)Nc2ccc(S(=O)(=O)N3CCOCC3)cc2)c1O`: the IC50 is > 54 µM (inactive).

`C#CCOCCOCCOCCNc1nc(N2CCN(C(=O)[C@H](Cc3cc4ccccc4[nH]3)n3cc([C@@H](N)CC(C)C)nn3)CC2)nc(N2CCN(C(=O)[C@H](Cc3cc4ccccc4[nH]3)n3cc([C@@H](N)CC(C)C)nn3)CC2)n1`: the IC50 is 24.2 µM.

As to `CCCCOc1ccc(CC2C(=O)N(C)C(=O)N(C)C2=O)cc1`, the IC50 is > 54 µM (inactive).

Take `Cc1cccc(NC(=O)c2cc(N3C(=O)CCC3=O)ccc2Cl)n1`: the IC50 is > 54 µM (inactive).

With `CCn1c(-c2cccc(Br)c2)n[nH]c1=S`, the IC50 was > 54 µM (inactive).

For `O=C(Cc1ccc(F)cc1)Nc1nnc(SCC(=O)NC2CCCC2)s1`, the IC50 was > 54 µM (inactive).

With `O=C1C(=Cc2ccc(Br)o2)C(=O)c2ccccc21`, the IC50 is 3.15 µM.

Take `O=C(CSc1cccc[n+]1[O-])Nc1cc2c(cc1Cl)C(=O)c1ccccc1C2=O`: the IC50 was 9.39 µM.

Regarding `O=c1cc(-c2ccccc2Cl)oc2c(NS(=O)(=O)c3cc(Cl)cc(Cl)c3O)ccc(O)c12`, the IC50 is 7.73 µM.

With `O=C(/C=C/c1cccs1)Nc1scc(-c2ccccc2)c1C(=O)O`, the IC50 was 0.54 µM.

As to `N=c1oc2cc(O)ccc2cc1C(=O)Nc1nc2ccccc2s1`, the IC50 was > 54 µM (inactive).

With `CN(C1=NC(=O)CS1)c1ccc(O)cc1`, the IC50 is > 54 µM (inactive).

Turning to `COc1cc(OC)cc(C(=O)N[C@H](C(=O)OCC(=O)NC(=O)c2cccn2C)C(C)C)c1`, the IC50 is > 54 µM (inactive).

In the case of `COC(=O)c1ccc(Oc2coc3cc(OCc4ccc([N+](=O)[O-])cc4)ccc3c2=O)cc1`, the IC50 was > 54 µM (inactive).

Turning to `Cn1c(SCc2nc3ccccc3s2)nnc1-c1ccc2c(c1)OCO2`, the IC50 is > 54 µM (inactive).

As to `CC1=C(C#N)C(=O)NC(=O)/C1=C\c1ccc(-c2ccc(C)cc2[N+](=O)[O-])o1`, the IC50 is 1.09 µM.
